In patent publication US20210386721A1, “SUBSTITUTED PHENYLPROPENYL PYRIDINE DERIVATIVES, THEIR PREPARATION AND PHARMACEUTICAL APPLICATIONS” (SHANGHAI HAIYAN PHARMACEUTICAL TECHNOLOGY CO., LTD., priority 2019, published 2021):

What was measured:
PD-1/PD-L1 = molecular target: T1, PD-1/PD-L1 (Homo sapiens, UniProt Q9NZQ7); assay: PD-1/PD-L1 binding assay (HTRF, PPI-HTRF); conditions: HTRF PD1/PD-L1 binding assay kit; 10 nM Tag1-PD-L1; 25° C.
T1 construct: purchased Cisbio 63ADK000CPDPEB
Procedure, shortened: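 HTRF binding assay: compound was mixed with tagged proteins at final concentrations of 10 nM Tag1-PD-L1 and 2 nM PD1 for 15 min at 25 °C. Anti-Tag1-Eu³⁺ and anti-Tag2-XL665 antibodies were then added for 16 h at 25 °C. IC50 was derived from the 665/620 nm emission ratio.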

[1] = test system: Jurkat T(PD1 Luc-)/CHOK1(PDL-1); assay: Jurkat T(PD1 Luc-)/CHOK1(PDL-1) cell experiment (luciferase reporter); type: cell-based; conditions: CHO/PD-L1-OKT3 cells co-cultured with Jurkat/PD1-NFAT-Luc cells for 6 hours; Bio-Glo luciferase signal
Experimental: Assay 2 Jurkat T(PD1 Luc-)/CHOK1(PDL-1) Cell Experiment
G418, Sangon Biotech #A100859-0001, Cat Number G108BA0003, 5 ml of deionized water being added into each bottle, store at 4° C.
CHO/PD-L1-OKT3 cells (constructed by referring to Promega's PD-1/PD-L1 Blockade Bioassays system) cultured in F-12K medium (containing 10% FBS, 800 ug/ml G418, 400 ug/ml D Hygromycin B) were planted into a 96-well plate at 2×10^4 per well, and incubated for 24 hours at 37° C. and 5% CO2. part of the medium was removed, and the test compound dissolved in DMSO with a final concentration of 1 uM was added, and DMSO at the same concentration was added into the control cells. Jurkat/PD1-NFAT-Luc cells (constructed by referring to Promega's PD-1/PD-L1 Blockade Bioassays system) were added at 5×10^5 per well at the same time, and cultured for 6 hours. The corresponding luciferase signal was detected by Bio-Glo™ (Promega, G7940) reagent. The EC50 of each compound to be tested was calculated through the non-linear regression of XLfit software.

T1 sequence (Q9NZQ7 19-238 limits assumed): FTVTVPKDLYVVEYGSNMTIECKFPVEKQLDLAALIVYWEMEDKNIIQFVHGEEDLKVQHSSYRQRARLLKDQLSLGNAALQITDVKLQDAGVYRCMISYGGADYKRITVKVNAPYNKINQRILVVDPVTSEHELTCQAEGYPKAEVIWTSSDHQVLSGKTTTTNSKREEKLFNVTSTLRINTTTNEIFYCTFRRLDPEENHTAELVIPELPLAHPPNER

SMILES	IC50 (PD-1/PD-L1) [nM]	EC50 [1] [nM]
COc1cc(/C=C/c2cccc(-c3cccc(NC(=O)c4ccc(CN5CC[C@@H](O)C5)cn4)c3Cl)c2C)c(C(F)(F)F)cc1CN1CCC(C(=O)O)CC1 [Z-89]	1	16
Cc1cc(/C=C/c2cccc(-c3cccc(NC(=O)c4ccc(CN5CC[C@@H](O)C5)cn4)c3C)c2C)c(C(F)(F)F)cc1CN1CC[C@@H](C(=O)O)C1 [Z-90]	1	24
COc1cc(/C=C/c2cccc(-c3cccc(NC(=O)c4ccc(CN5CC[C@@H](O)C5)cn4)c3C(F)(F)F)c2C#N)c(C(F)(F)F)cc1CN1CC[C@@H](C(=O)O)C1 [Z-98]	2	174
COc1cc(/C=C/c2cccc(-c3cccc(NC(=O)c4nc5c(n4C)CCN(C(C)C)C5)c3C)c2C)c(C(F)(F)F)cc1CN1CC[C@@H](C(=O)O)C1 [Z-134, (R,E)-1-(4-(2-(3′-(5-isopropyl-1-methyl-4,5,6,7-tetrahydro-1H-imidazo[4,5-c]pyridine-2-carboxamido)-2,2′-dimethyl-[1,1′-biphenyl]-3-yl)vinyl)-2-methoxy-5-(trifluoromethyl)benzyl)pyrrolidine-3-carboxylic Acid]	1	91
COc1cc(/C=C/c2cccc(-c3cccc(NC(=O)c4ccc(CN5CC[C@@H](O)C5)cn4)c3C)c2Cl)c(C(F)(F)F)cc1CN1CC[C@@H](C(=O)O)C1 [Z-85]	1	34
COc1cc(C(=O)Nc2cccc(-c3cccc(/C=C/c4cc(OC)c(CN5CCC(C)(C(=O)O)C5)cc4C(F)(F)F)c3C)c2C)ncc1CN1CC[C@@H](O)C1 (stereo partly shown) [Z-121]	1	31
Cc1cc(/C=C/c2nccc(-c3cccc(NC(=O)c4ccc(CNCCO)cn4)c3C)c2C#N)c(Cl)cc1CN1CCCC[C@H]1C(=O)O [Z-2, (S, E)-1-(5-chloro-4-(2-(3-cyano-4-(3-(5-(((2-hydroxyethyl)amino)methyl)picolinamido)-2-methylphenyl)pyridin-2-yl)vinyl)-2-methylbenzyl)piperidine-2-carboxylic Acid]	1	79
Cc1cc(/C=C/c2nccc(-c3cccc(NC(=O)c4ccc(CN5CC[C@@H](O)C5)cn4)c3C)c2Cl)c(Cl)cc1CN1CCCC[C@H]1C(=O)O [Z-83]	1	113
COc1cc(/C=C/c2cccc(-c3cccc(NC(=O)c4ccc(CNC[C@@H]5CCC(=O)N5)cn4)c3C)c2C)c(C(F)(F)F)cc1CN1CC[C@@H](C(=O)O)C1 [Z-110, (R)-1-(4-((E)-2-(2,2′-dimethyl-3′-(5-(((((S)-5-oxopyrrolidin-2-yl)methyl)amino)methyl)picolinamido)-[1,1′-biphenyl]-3-yl)vinyl)-2-methoxy-5-(trifluoromethyl)benzyl)pyrrolidine-3-carboxylic Acid]	1	153
COc1cc(/C=C/c2cccc(-c3cccc(NC(=O)c4cc(OC)c(CN5CC[C@@H](O)C5)cn4)c3C)c2C)c(C(F)(F)F)cc1CNC[C@@H](O)CC(=O)O [Z-118, (S)-3-hydroxy-4-((4-((E)-2-(3′-(5-(((R)-3-hydroxypyrrolidin-1-yl)methyl)-4-methoxypicolinamido)-2,2′-dimethyl-[1,1′-biphenyl]-3-yl)vinyl)-2-methoxy-5-(trifluoromethyl)benzyl)amino) butanoic Acid]	1	13
COc1cc(/C=C/c2cccc(-c3cccc(NC(=O)c4nc5c(n4C)CCN(C)C5)c3Cl)c2C)c(C(F)(F)F)cc1CN1CCCC[C@H]1C(=O)O [Z-108, (S,E)-1-(4-(2-(2′-chloro-3′-(1,5-dimethyl-4,5,6,7-tetrahydro-1H-imidazo[4,5-c]pyridine-2-carboxamido)-2-methyl-[1,1′-biphenyl]-3-yl)vinyl)-2-methoxy-5-(trifluoromethyl)benzyl)piperidine-2-carboxylic Acid]	2	57
COc1cc(/C=C/c2cccc(-c3cccc(NC(=O)c4ccc(CN5CC[C@@H](O)C5)cn4)c3C)c2C)c(C(F)(F)F)cc1CN1CCCC(C(=O)O)C1 (stereo partly shown) [Z-106]	1	20
COc1cc(/C=C/c2cccc(-c3cccc(-c4cnc(CN5CC[C@@H](O)C5)c(OC)n4)c3C)c2C)c(C(F)(F)F)cc1CN1CC[C@@H](C(=O)O)C1 [Z-57]	1	66
COc1cc(/C=C/c2ccnc(-c3cccc(Nc4nccc5cc(CN6CC[C@@H](O)C6)cnc45)c3C)c2Cl)c(C(F)(F)F)cc1CN1CC[C@@H](C(=O)O)C1 [Z-12]	1	153
COc1cc(/C=C/c2nccc(-c3cccc(NC(=O)c4ccc(CN5CC[C@@H](O)C5)cn4)c3C)c2C#N)c(C(F)(F)F)cc1CN1CC[C@@H](C(=O)O)C1 [Z-74]	1	51

Now from value to compound, other results behind:

IC50 (PD-1/PD-L1) [nM]	SMILES	EC50 [1] [nM]
1	COc1cc(C(=O)Nc2cccc(-c3cccc(/C=C/c4cc(OC)c(CN5CCC[C@H]5C(=O)O)cc4C(F)(F)F)c3C)c2C)ncc1CNCCO [Z-112]	25
1	COc1cc(/C=C/c2ccnc(-c3cccc(-c4nc5cc(CN6CC[C@@H](O)C6)cc(C#N)c5o4)c3C)c2Cl)c(C(F)(F)F)cc1CN1CC[C@@H](C(=O)O)C1 [Z-52]	153
1	COc1cc(/C=C/c2cccc(-c3cccc(-c4nc5cc(CN6CC[C@@H](C(=O)O)C6)cc(C#N)c5o4)c3C)c2C)c(C(F)(F)F)cc1CNCCO [Z-33]	74
1	COc1cc(/C=C/c2cccc(-c3cccc(-c4nc5cc(CN6CC[C@@H](C(=O)O)C6)cc(C#N)c5o4)c3Cl)c2C)c(C(F)(F)F)cc1CN1CC[C@@H](O)C1 [Z-42]	64
2	COc1cc(/C=C/c2cccc(-c3cccc(-c4nc5cc(CN6CC[C@@H](C(=O)O)C6)cc(C#N)c5o4)c3C)c2C)c(C(F)(F)F)cc1CN[C@@H](C)CO [Z-34, (R)-1-((7-cyano-2-(3′-((E)-4-((((S)-1-hydroxypropan-2-yl)amino)methyl)-5-methoxy-2-(trifluoromethyl)styryl)-2,2′-dimethyl-[1,1′-biphenyl]-3-yl)benzo[d]oxazol-5-yl)methyl)pyrrolidine-3-carboxylic Acid]	79
1	COc1cc(/C=C/c2cccc(-c3cccc(-c4nc5c(C#N)cc(CN6CC[C@@H](C(=O)O)C6)cn5n4)c3C)c2C)c(C(F)(F)F)cc1CN1CC[C@@H](O)C1 [Z-53, (R)-1-((8-cyano-2-(3′-((E)-4-(((R)-3-hydroxypyrrolidin-1-yl)methyl)-5-methoxy-2-(trifluoromethyl)styryl)-2,2′-dimethyl-[1,1′-biphenyl]-3-yl)-[1,2,4]triazolo[1,5-a]pyridin-6-yl)methyl) pyrrolidine-3-carboxylic Acid]	28
2	COc1cc(/C=C/c2cccc(-c3cccc(-c4nc5cc(CN6CC[C@H](C(=O)O)C6)cc(C#N)c5o4)c3C)c2C)c(C(F)(F)F)cc1CN1CC[C@@H](O)C1 [Z-35]	29
1	COc1cc(/C=C/c2cccc(-c3cccc(NC(=O)c4cc(CN5CC[C@@H](O)C5)ccn4)c3C)c2C)c(C(F)(F)F)cc1CN1CC[C@@H](C(=O)O)C1 [Z-120]	15
